US12371454B2, “Cyclic peptide compound having Kras inhibitory action” (priority 2019, dated 2025)
Starred links: 1 amine or outer side, 2 acyl side, 3 side chain; linkers in the order of their positions; H or OH if unused. Positions of bridges follow the written chain, without caps; N, C: chain ends. Non-standard residues stand in square brackets, D forms with d. Residues, ends and D or L forms follow the SMILES beside them. *: point of attachment. hPhe(3-Cl-4-CF3) = N[C@@H](CCc1ccc(C(F)(F)F)c(Cl)c1)C(=O)O; NMePhe(4-CF3) = CN[C@@H](Cc1ccc(C(F)(F)F)cc1)C(=O)O; X85 = O=C([C@@H]1C[C@@H](n2ccnn2)CN1[*:1])[*:2]; NMePhe(4-Me) = CN[C@@H](Cc1ccc(C)cc1)C(=O)O; X72 = COc1ccc(CC[C@H](N[*:1])C(=O)[*:2])cn1; NMeAla(cPent) = CN[C@@H](CC1CCCC1)C(=O)O; NMeNva(5,5-F2) = CN[C@@H](CCC(F)F)C(=O)O; NMeGly(cPent) = CN[C@H](C(=O)O)C1CCCC1; NMeCha = CN[C@@H](CC1CCCCC1)C(=O)O; NMeAhp(2) = CCCCC[C@H](NC)C(=O)O; NMeChg = CN[C@H](C(=O)O)C1CCCCC1; NMeI = CC[C@H](C)[C@H](NC)C(=O)O; NMeD = CN[C@@H](CC(=O)O)C(=O)O; NMeL = CN[C@@H](CC(C)C)C(=O)O; NMePra = C#CC[C@H](NC)C(=O)O; NEtAla = CCN[C@@H](C)C(=O)O; NMeV = CN[C@H](C(=O)O)C(C)C; d(β3hA) = C[C@@H](N)CC(=O)O; NMeA = CN[C@@H](C)C(=O)O; Piperidide = C1CCN(*)CC1; Pyrrolidide = C1CCN(*)C1; dNMeA = CN[C@H](C)C(=O)O; Ac5c = NC1(C(=O)O)CCCC1; Aze = O=C(O)[C@@H]1CCN1; Ac4c = NC1(C(=O)O)CCC1; Sar = CNCC(=O)O

tested on: Human pancreatic cancer cell line AsPC-1; test: Measurement of AsPC-1 cell growth inhibition (AsPC-1 CGI); assay type: cell-based; conditions: 96 h
In short: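 AsPC-1 cells in 15% FBS RPMI-1640 were exposed to test compound for 96 hours at 37° C, with CellTiter-Glo as endpoint.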

Compound	IC50 [nM]
CC[C@H](C)[C@@H]1NC(=O)[C@H](CC(C)C)N(C)C(=O)C[C@@H](C)NC(=O)[C@H](C2CCCC2)N(C)C(=O)C2(CCCC2)NC(=O)[C@@H]2CCCN2C(=O)[C@H](CCc2ccc(C(F)(F)F)c(Cl)c2)NC(=O)CN(C)C(=O)[C@H](Cc2ccc(C)cc2)N(C)C(=O)[C@@H]2CCN2C(=O)[C@H](C)NC1=O [Compound 1331] (cyclo(A[Aze][NMePhe(4-Me)][Sar][hPhe(3-Cl-4-CF3)]P[Ac5c][NMeGly(cPent)][d(β3hA)][NMeL]I))	50 to 100
CC[C@H](C)[C@@H]1NC(=O)[C@H](CC(C)C)N(C)C(=O)C[C@@H](C(=O)N2CCCCC2)N(C)C(=O)[C@H](C2CCCCC2)N(C)C(=O)C2(CCCC2)NC(=O)[C@H](CCC(F)F)N(C)C(=O)[C@H](CCc2ccc(C(F)(F)F)c(Cl)c2)NC(=O)CN(C)C(=O)[C@H](CC2CCCCC2)N(C)C(=O)CN(C)C(=O)CN(C)C1=O [Compound 523] ([NMeL]I[Sar][Sar][NMeCha][Sar][hPhe(3-Cl-4-CF3)][NMeNva(5,5-F2)][Ac5c][NMeChg][NMeD]-Piperidide; lactam N-11)	100 to 500
CC[C@H](C)[C@@H]1NC(=O)[C@H](CC(C)C)N(C)C(=O)C[C@@H](C(=O)N2CCCCC2)N(C)C(=O)[C@H](C(C)C)N(C)C(=O)C2(CCCC2)NC(=O)[C@@H]2CCCN2C(=O)[C@H](CCc2ccc(C(F)(F)F)c(Cl)c2)NC(=O)CN(C)C(=O)[C@H](CC2CCCCC2)N(C)C(=O)[C@@H]2CCN2C(=O)[C@H](C)N(C)C1=O [Compound 476] ([NMeL]I[NMeA][Aze][NMeCha][Sar][hPhe(3-Cl-4-CF3)]P[Ac5c][NMeV][NMeD]-Piperidide; lactam N-11)	100 to 500
CC[C@H](C)[C@@H]1NC(=O)[C@H](CC(C)C)N(C)C(=O)C[C@@H](C(=O)N(C)C)N(C)C(=O)[C@H](C(C)C)N(C)C(=O)C2(CCCC2)NC(=O)[C@@H]2CCCN2C(=O)[C@H](CCc2ccc(C(F)(F)F)c(Cl)c2)NC(=O)CN(C)C(=O)[C@H](Cc2ccc(C)cc2)N(C)C(=O)[C@@H]2CCN2C(=O)[C@H](C)N(C)C1=O [Compound 1653] ([NMeL]I[NMeA][Aze][NMePhe(4-Me)][Sar][hPhe(3-Cl-4-CF3)]P[Ac5c][NMeV][NMeD]-NMe2; lactam N-11)	50 to 100
CC[C@H](C)[C@@H]1NC(=O)[C@H](CC(C)C)N(C)C(=O)C[C@@H](C(=O)N2CCCCC2)N(C)C(=O)[C@H](C2CCCC2)N(C)C(=O)C2(CCCC2)NC(=O)[C@@H]2CCCN2C(=O)[C@H](CCc2ccc(OC)nc2)NC(=O)CN(C)C(=O)[C@H](CC2CCCCC2)N(C)C(=O)[C@@H]2CCN2C(=O)[C@H](C)N(C)C1=O [Compound 2084] ([NMeL]I[NMeA][Aze][NMeCha][Sar][X72]P[Ac5c][NMeGly(cPent)][NMeD]-Piperidide; lactam N-11)	100 to 500
CC[C@H](C)[C@@H]1NC(=O)[C@H](CC(C)C)N(C)C(=O)C[C@@H](C)NC(=O)[C@H](C2CCCC2)N(C)C(=O)C2(CCCC2)NC(=O)[C@@H]2CCCN2C(=O)[C@H](CCc2ccc(C(F)(F)F)c(Cl)c2)NC(=O)CN(C)C(=O)[C@H](Cc2ccc(C)cc2)N(C)C(=O)[C@@H]2CCN2C(=O)[C@H](C)N(CC)C1=O [Compound 1023] (cyclo([Ac5c][NMeGly(cPent)][d(β3hA)][NMeL]I[NEtAla][Aze][NMePhe(4-Me)][Sar][hPhe(3-Cl-4-CF3)]P))	50 to 100
CC[C@H](C)[C@@H]1NC(=O)[C@H](CC(C)C)N(C)C(=O)C[C@@H](C(=O)N2CCCC2)NC(=O)[C@H]([C@@H](C)CC)N(C)C(=O)C2(CCCC2)NC(=O)[C@@H]2CCCN2C(=O)[C@H](CCc2ccc(C(F)(F)F)c(Cl)c2)NC(=O)CN(C)C(=O)[C@H](CC2CCCCC2)N(C)C(=O)[C@@H]2CCN2C(=O)[C@H](C)N(C)C1=O [Compound 453] ([NMeL]I[NMeA][Aze][NMeCha][Sar][hPhe(3-Cl-4-CF3)]P[Ac5c][NMeI]D-Pyrrolidide; lactam N-11)	50 to 100
CC[C@H](C)[C@@H]1NC(=O)[C@H](CC(C)C)N(C)C(=O)C[C@@H](C)NC(=O)[C@H](C2CCCC2)N(C)C(=O)C2(CCCC2)NC(=O)[C@@H]2CCCN2C(=O)[C@H](CCc2ccc(C(F)(F)F)c(Cl)c2)NC(=O)[C@@H](C)N(C)C(=O)[C@H](Cc2ccc(C(F)(F)F)cc2)N(C)C(=O)[C@@H]2CCN2C(=O)[C@H](C)N(C)C1=O [Compound 1482] (cyclo([Ac5c][NMeGly(cPent)][d(β3hA)][NMeL]I[NMeA][Aze][NMePhe(4-CF3)][dNMeA][hPhe(3-Cl-4-CF3)]P))	100 to 500
CC[C@H](C)[C@@H]1NC(=O)[C@H](CC(C)C)N(C)C(=O)C[C@@H](C)NC(=O)[C@H]([C@@H](C)CC)N(C)C(=O)C2(CCCC2)NC(=O)[C@@H]2CCCN2C(=O)[C@H](CCc2ccc(C(F)(F)F)c(Cl)c2)NC(=O)CN(C)C(=O)[C@H](CC2CCCCC2)N(C)C(=O)[C@@H]2CCN2C(=O)[C@H](C)N(C)C1=O [Compound 1654] (cyclo([Ac5c][NMeI][d(β3hA)][NMeL]I[NMeA][Aze][NMeCha][Sar][hPhe(3-Cl-4-CF3)]P))	50 to 100
CC[C@H](C)[C@@H]1NC(=O)[C@H](CC(C)C)N(C)C(=O)C[C@@H](C)NC(=O)[C@H](C2CCCC2)N(C)C(=O)C2(CCCC2)NC(=O)[C@@H]2CCCN2C(=O)[C@H](CCc2ccc(C(F)(F)F)c(Cl)c2)NC(=O)CN(C)C(=O)[C@H](CC2CCCCC2)N(C)C(=O)[C@@H]2CCN2C(=O)CN(C)C1=O [Compound 1499] (cyclo([Ac5c][NMeGly(cPent)][d(β3hA)][NMeL]I[Sar][Aze][NMeCha][Sar][hPhe(3-Cl-4-CF3)]P))	100 to 500
CC[C@H](C)[C@@H]1NC(=O)[C@H](C)N(C)C(=O)C[C@@H](C)NC(=O)[C@H](C2CCCC2)N(C)C(=O)C2(CCCC2)NC(=O)[C@@H]2CCCN2C(=O)[C@H](CCc2ccc(C(F)(F)F)c(Cl)c2)NC(=O)CN(C)C(=O)[C@H](Cc2ccc(C)cc2)N(C)C(=O)CN(C)C(=O)CN(C)C1=O [Compound 1485] (cyclo([Ac5c][NMeGly(cPent)][d(β3hA)][NMeA]I[Sar][Sar][NMePhe(4-Me)][Sar][hPhe(3-Cl-4-CF3)]P))	100 to 500
CO[C@H](C)[C@@H]1NC(=O)[C@H](CC(C)C)N(C)C(=O)C[C@@H](C(=O)N2CCCCC2)N(C)C(=O)[C@H](C(C)C)N(C)C(=O)C2(CCCC2)NC(=O)[C@@H]2CCCN2C(=O)[C@H](CCc2ccc(C(F)(F)F)c(Cl)c2)NC(=O)CN(C)C(=O)[C@H](CC2CCCCC2)N(C)C(=O)[C@@H]2CCN2C(=O)[C@H](C)N(C)C1=O [Compound 497] ([NMeL]T(Me)[NMeA][Aze][NMeCha][Sar][hPhe(3-Cl-4-CF3)]P[Ac5c][NMeV][NMeD]-Piperidide; lactam N-11)	100 to 500
CC[C@H](C)[C@@H]1NC(=O)[C@H](CC(C)C)N(C)C(=O)C[C@@H](C(=O)N2CCCC2)N(C)C(=O)[C@H](C2CCCC2)N(C)C(=O)C2(CCCC2)NC(=O)[C@@H]2CCCN2C(=O)[C@H](CCc2ccc(C(F)(F)F)c(Cl)c2)NC(=O)CN(C)C(=O)[C@H](C2CCCC2)N(C)C(=O)[C@@H]2CCN2C(=O)[C@H](C)N(C)C1=O [Compound 201] ([NMeL]I[NMeA][Aze][NMeGly(cPent)][Sar][hPhe(3-Cl-4-CF3)]P[Ac5c][NMeGly(cPent)][NMeD]-Pyrrolidide; lactam N-11)	20 to 50
CCCCC[C@H]1C(=O)N[C@@H]([C@@H](C)CC)C(=O)N(C)[C@@H](C)C(=O)N2CC[C@H]2C(=O)N(C)[C@@H](CC2CCCCC2)C(=O)N(C)CC(=O)N[C@@H](CCc2ccc(C(F)(F)F)c(Cl)c2)C(=O)N2CCC[C@H]2C(=O)NC2(CCCC2)C(=O)N(C)[C@@H](C(C)C)C(=O)N(C)[C@H](C(=O)N2CCCCC2)CC(=O)N1C [Compound 1705] ([NMeAhp(2)]I[NMeA][Aze][NMeCha][Sar][hPhe(3-Cl-4-CF3)]P[Ac5c][NMeV][NMeD]-Piperidide; lactam N-11)	100 to 500
CC[C@H](C)[C@@H]1NC(=O)[C@H](CC(C)C)N(C)C(=O)C[C@@H](C(=O)N2CCCCC2)N(C)C(=O)[C@H](C(C)C)N(C)C(=O)C2(CCCC2)NC(=O)[C@@H]2C[C@@H](n3ccnn3)CN2C(=O)[C@H](CCc2ccc(C(F)(F)F)c(Cl)c2)NC(=O)CN(C)C(=O)[C@H](CC2CCCC2)N(C)C(=O)CN(C)C(=O)CN(C)C1=O [Compound 2113, (3S,9S,18S,21S,25S,28S,34S,36R)-3-[2-[3-chloro-4-(trifluoromethyl)phenyl]ethyl]-9-(cyclopentylmethyl)-21-isobutyl-28-isopropyl-7,10,13,16,22,26,29-heptamethyl-18-[(1S)-1-methylpropyl]-25-(piperidine-1-carbonyl)-36-(triazol-1-yl)spiro[1,4,7,10,13,16,19,22,26,29,32-undecazabicyclo[32.3.0]heptatriacontane-31,1′-cyclopentane]-2,5,8,11,14,17,20,23,27,30,33-undecone] ([NMeL]I[Sar][Sar][NMeAla(cPent)][Sar][hPhe(3-Cl-4-CF3)][X85][Ac5c][NMeV][NMeD]-Piperidide; lactam N-11)	> 500
CC[C@H](C)[C@@H]1NC(=O)[C@H](CC(C)C)N(C)C(=O)C[C@@H](C(=O)N2CCCC2)NC(=O)[C@H](C2CCCC2)N(C)C(=O)C2(CCCC2)NC(=O)[C@@H]2CCCN2C(=O)[C@H](CCc2ccc(C(F)(F)F)c(Cl)c2)NC(=O)CN(C)C(=O)[C@H](CC2CCCCC2)N(C)C(=O)[C@@H]2CCN2C(=O)[C@H](C)N(C)C1=O [Compound 700] ([NMeL]I[NMeA][Aze][NMeCha][Sar][hPhe(3-Cl-4-CF3)]P[Ac5c][NMeGly(cPent)]D-Pyrrolidide; lactam N-11)	100 to 500
CC[C@H](C)[C@@H]1NC(=O)[C@H](CC(C)C)N(C)C(=O)C[C@@H](C(=O)N2CCCCC2)N(C)C(=O)[C@H](C(C)C)N(C)C(=O)C2(CCC2)NC(=O)[C@@H]2CCCN2C(=O)[C@H](CCc2ccc(C(F)(F)F)c(Cl)c2)NC(=O)CN(C)C(=O)[C@H](CC2CCCCC2)N(C)C(=O)[C@@H]2CCN2C(=O)[C@H](C)N(C)C1=O [Compound 1672] ([NMeL]I[NMeA][Aze][NMeCha][Sar][hPhe(3-Cl-4-CF3)]P[Ac4c][NMeV][NMeD]-Piperidide; lactam N-11)	100 to 500
C#CC[C@H]1C(=O)N[C@@H]([C@@H](C)CC)C(=O)N(C)[C@@H](C)C(=O)N2CC[C@H]2C(=O)N(C)[C@@H](CC2CCCCC2)C(=O)N(C)CC(=O)N[C@@H](CCc2ccc(C(F)(F)F)c(Cl)c2)C(=O)N2CCC[C@H]2C(=O)NC2(CCCC2)C(=O)N(C)[C@@H](C(C)C)C(=O)N(C)[C@H](C(=O)N2CCCCC2)CC(=O)N1C [Compound 559] ([NMePra]I[NMeA][Aze][NMeCha][Sar][hPhe(3-Cl-4-CF3)]P[Ac5c][NMeV][NMeD]-Piperidide; lactam N-11)	100 to 500
